Laboratory results: the supplement of paper PMC13207355

Columns and labels:
Conditions in all cases: exposure time: 72 h
[1] = tested on: E13 (patient-derived glioblastoma stem cells of classical subtype); assay: surviving fraction (nuclei count normalised to DMSO); higher = more cells surviving (less toxic)
[2] = tested on: E21 (patient-derived glioblastoma stem cells of mesenchymal subtype); assay: as above
[3] = tested on: E28 (patient-derived glioblastoma stem cells of classical subtype); assay: as above
[4] = tested on: E31 (patient-derived glioblastoma stem cells of proneural subtype); assay: as above
[5] = tested on: E34 (patient-derived glioblastoma stem cells of proneural subtype); assay: as above
[6] = tested on: E57 (patient-derived glioblastoma stem cells of mesenchymal subtype); assay: as above
[7] = tested on: FT3469 (normal neural stem cell line); assay: as above
[8] = tested on: E13; assay: phenotypic distance (Euclidean, principal components) from DMSO controls (arbitrary units); higher = stronger morphological change
[9] = tested on: E21; assay: as above
[10] = tested on: E28; assay: as above
[11] = tested on: E31; assay: as above
[12] = tested on: E34; assay: as above
[13] = tested on: E57; assay: as above
[14] = tested on: FT3469; assay: as above
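Wherever phenotypic distance (Euclidean, principal components) from DMSO controls is given: cell Painting imaging in 384-well plates, CellProfiler features reduced to at least 20 principal components, Euclidean distance versus same-plate DMSO vehicle wells (0.1% v/v), median over six images per well.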
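Wherever surviving fraction (nuclei count normalised to DMSO) is given: nuclei counted by high-content imaging of Hoechst-stained cells in laminin-coated 384-well plates, relative to 0.1% DMSO vehicle wells, with staurosporine as cell-death control.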

O=C(Nc1ccc([N+](=O)[O-])cc1Cl)c1cc(Cl)ccc1O [Niclosamide]
Conditions	phenotypic distance	surviving fraction
[1], 4.1 nM	–	0.397
[1], 12.3 nM	–	0.192
[1], 37 nM	–	0.156
[1], 111.1 nM	–	0.163
[1], 333.3 nM	–	0.148
[1], 1000 nM	–	0.132
[1], 3000 nM	–	0.117
[2], 4.1 nM	–	0.602
[2], 12.3 nM	–	0.363
[2], 37 nM	–	0.0551
[2], 111.1 nM	–	0.0103
[2], 333.3 nM	–	0.0028
[2], 1000 nM	–	0.00933
[2], 3000 nM	–	0.00467
[3], 4.1 nM	–	0.616
[3], 12.3 nM	–	0.446
[3], 37 nM	–	0.147
[3], 111.1 nM	–	0.0916
[3], 333.3 nM	–	0.0952
[3], 1000 nM	–	0.0557
[3], 3000 nM	–	0.0898
[4], 4.1 nM	–	0.927
[4], 12.3 nM	–	0.495
[4], 37 nM	–	0.132
[4], 111.1 nM	–	0.072
[4], 333.3 nM	–	0.0854
[4], 1000 nM	–	0.0502
[4], 3000 nM	–	0.0703
[5], 4.1 nM	–	0.708
[5], 12.3 nM	–	0.542
[5], 37 nM	–	0.562
[5], 111.1 nM	–	0.417
[5], 333.3 nM	–	0.406
[5], 1000 nM	–	0.452
[5], 3000 nM	–	0.331
[6], 4.1 nM	–	0.572
[6], 12.3 nM	–	0.303
[6], 37 nM	–	0.2
[6], 111.1 nM	–	0.176
[6], 333.3 nM	–	0.166
[6], 1000 nM	–	0.136
[6], 3000 nM	–	0.149
[7], 4.1 nM	–	0.772
[7], 12.3 nM	–	0.654
[7], 37 nM	–	0.297
[7], 111.1 nM	–	0.244
[7], 333.3 nM	–	0.227
[7], 1000 nM	–	0.262
[7], 3000 nM	–	0.28
[8], 4.1 nM	4.25	–
[8], 12.3 nM	4.77	–
[8], 37 nM	6.86	–
[8], 111.1 nM	9.47	–
[8], 333.3 nM	8.21	–
[8], 1000 nM	8.6	–
[8], 3000 nM	8.06	–
[9], 4.1 nM	4.72	–
[9], 12.3 nM	6.44	–
[9], 37 nM	6.49	–
[9], 111.1 nM	11.8	–
[9], 333.3 nM	11.9	–
[9], 1000 nM	12.4	–
[9], 3000 nM	14	–
[10], 4.1 nM	1.99	–
[10], 12.3 nM	2.43	–
[10], 37 nM	6.04	–
[10], 111.1 nM	8.95	–
[10], 333.3 nM	7.22	–
[10], 1000 nM	8.51	–
[10], 3000 nM	7.9	–
[11], 4.1 nM	3.09	–
[11], 12.3 nM	4.78	–
[11], 37 nM	5.57	–
[11], 111.1 nM	10.1	–
[11], 333.3 nM	8.82	–
[11], 1000 nM	9.48	–
[11], 3000 nM	7.83	–
[12], 4.1 nM	1.82	–
[12], 12.3 nM	2.56	–
[12], 37 nM	5.44	–
[12], 111.1 nM	8.06	–
[12], 333.3 nM	7.5	–
[12], 1000 nM	7.96	–
[12], 3000 nM	7.89	–
[13], 4.1 nM	4.23	–
[13], 12.3 nM	7.26	–
[13], 37 nM	6.17	–
[13], 111.1 nM	4.83	–
[13], 333.3 nM	6.2	–
[13], 1000 nM	6.94	–
[13], 3000 nM	6.28	–
[14], 4.1 nM	2.28	–
[14], 12.3 nM	3.48	–
[14], 37 nM	7.75	–
[14], 111.1 nM	7.91	–
[14], 333.3 nM	9.29	–
[14], 1000 nM	9.03	–
[14], 3000 nM	10.3	–
